The text below walks through data of patent US9120816B2, “Oxanorbornadiene derivatives and their anticancer activities” (priority 2012, dated 2015).

pIC50: −log10 of the molar value. Like-named read-outs stand apart in the source and are kept apart here. Some results are limits rather than exact numbers.

Assay [1] relates to MDA-MB-231 (human breast adenocarcinoma). The assay is described as follows: MTT cytotoxicity assay, MDA-MB-231. The class given is cell-based. To be noted: for pIC50: Homo sapiens, MDA-MB-231. As to the method: (§1) Cytotoxic activities of all compounds are evaluated by MTT assay using KYSE-150 (human oesophagus carcinoma), MKN-45 (human gastric aednocarcinoma), DLD-1 (human colorectal carcinoma cell line), HepG2 (human hepatocellular carcinoma), MCF-7 (human breast adenocarcinoma), and MDA-MB-231 (human breast adenocarcinoma). Canthatidin is used as positive control.
(§2) Cells are seeded in a 96-well plate (4×10^3 cells/well) and allowed to attach overnight.
(§3) After the recovery, cells are treated with 1.56 μM, 3.125 μM, 6.25 μM, 12.5 μM, 25 μM, 50 μM of each of the compounds in culture medium for 48 hrs. […] Finally, the culture medium is removed and 200 μL of DMSO are added to each well to dissolve the purple formazan crystals.

The test system of assay [2] is MCF-7 (human breast adenocarcinoma). The assay is described as follows: MTT cytotoxicity assay, MCF-7. The class given is cell-based. The following applies: for pIC50: Homo sapiens, MCF7. As to the method: as §1, §2, §3
Assay [3] deals with KYSE-150 (human oesophagus carcinoma). Description: MTT cytotoxicity assay, KYSE-150. The following applies: for pIC50: Homo sapiens, KYSE-150. The class given is cell-based. As to the method:
as §1, §2, §3

Assay [4] has as its system MKN-45 (human gastric aednocarcinoma). The assay is described as follows: MTT cytotoxicity assay, MKN-45. Format: cell-based. The following applies: 48 hrs treatment. The method, then: as §1, §2, §3
Assay [5] concerns HepG2 (human hepatocellular carcinoma). The assay is described as follows: MTT cytotoxicity assay, HepG2. The class given is cell-based. The following applies: 48 hrs treatment. As to the method: as §1, §2, §3
Assay [6] deals with DLD-1 (human colorectal carcinoma cell line). The assay is described as follows: MTT cytotoxicity assay, DLD-1. The class given is cell-based. To be noted: for pIC50: Homo sapiens, DLD-1. The method, then: as §1, §2, §3
The test system of another assay is KYSE-150 cells. The assay is described as follows: Wound healing assay. The class given is cell-based, human. To be noted: for Cell migration into the wound: KYSE-150 monolayer, 72 h, 1 and 2.5 μM/mL; for Viability of KYSE-150 cells as compared to controls: highest concentration of 1 μM/mL and 2.5 μM/mL. As to the method: In addition, wound healing assay is used to test whether the compounds 1, 2 and 3 could affect cell motility.
A wound healing assay is performed as follows: KYESE-150 cells are seeded in each well of the 12-well plate at 50% confluence in completed medium. After 24 hrs seeding, the monolayer is wounded by scoring with a sterile plastic tip (1 mL), then washed several times with medium to remove cell debris and then incubated in conditioned medium in the absence or presence of the tested compounds for various periods of time up to 72 h. […] Cell migration into the wound surface is monitored by Olympus IX71 microscopy and digitally photographed.

Setting [7] is: MTT, 48 hrs treatment, read-out: Cytotoxicity IC50, MDA-MB-231.
[8] abbreviates: MTT, 48 hrs treatment, read-out: Cytotoxicity IC50, MCF-7.
Where [9] appears, read: MTT, 48 hrs treatment, read-out: Cytotoxicity IC50, KYSE-150.
The mark [10] stands for this setting: MTT, 48 hrs treatment, read-out: Cytotoxicity IC50, DLD-1.

Take `COC(=O)C1=C(C(=O)OC)C2OC1CC2C#Cc1ccc(OC)cc1` (centres unmarked) [Compound 1]: the pIC50 is 5.64 in assay [1] (setting [7]); more than 5.00 in assay [1] (summary statement in conclusion, read-out: IC50 of cell growth inhibition, MDA-MB-231); 5.61 in assay [2] (setting [8]); more than 5.00 in assay [2] (summary statement in conclusion, read-out: IC50 of cell growth inhibition, MCF-7); 5.74 in assay [3] (setting [9]); more than 5.00 in assay [3] (summary statement in conclusion, read-out: IC50 of cell growth inhibition, KYSE-150). Moreover, the pIC50 in assay [4] is 4.67; in assay [5], 5.21; in assay [6] (setting [10]), 5.22; in assay [6] (summary statement in conclusion, read-out: IC50 of cell growth inhibition, DLD-1) it was more than 5.00. Moreover, in the assay with KYSE-150 cells, the “Cell migration into the wound” value is recorded as “do not migrate into the wound”. Moreover, the “Viability of KYSE-150 cells as compared to controls” value (from here on “Viability … compared to controls”) in the assay on KYSE-150 cells is given as “do not alter the viability”.

Take `COc1ccc(C#CC2CC3OC2C(C(=O)OC(C)(C)C)=C3C(=O)OC(C)(C)C)cc1` (centres unmarked) [Compound 3]: the pIC50 in assay [1] (setting [7]) is 4.30; in assay [2] (setting [8]) it was 4.48; in assay [3] (setting [9]), 5.27; in assay [4] it was 5.20; in assay [5], 5.08; in assay [6] (setting [10]) it was 5.42. Further, the “Growth inhibition of DLD-1 cells as compared to positive control” value in assay [6] (compared with canthatidin) is listed as “growth-inhibiting effects”. In the assay on KYSE-150 cells, the “Cell migration into the wound” value is “do not migrate into the wound”. In addition, in the assay with KYSE-150 cells, the “Viability … compared to controls” value is on record as “do not alter the viability”.

With `CCOC(=O)C1=C(C(=O)OCC)C2OC1CC2C#Cc1ccc(OC)cc1` (centres unmarked) [Compound 2], the pIC50 in assay [1] (setting [7]) was 5.55; in assay [2] (setting [8]), 5.19; in assay [3] (setting [9]), 5.85; in assay [4], 4.59; in assay [5], 4.81; in assay [6] (setting [10]) it was 5.76. Also, the “Growth inhibition of MDA-MB-231 cells as compared to positive control” value in assay [1] (compared with canthatidin) is recorded as “growth-inhibiting effects”. In assay [2] (compared with canthatidin), the “Growth inhibition of MCF-7 cells as compared to positive control” value is “growth-inhibiting effects”. Besides, the “Growth inhibition of KYSE-150 cells as compared to positive control” value in assay [3] (compared with canthatidin) is reported as “growth-inhibiting effects”. Further, in the assay with KYSE-150 cells, the “Cell migration into the wound” value is reported as “do not migrate into the wound”. In the assay on KYSE-150 cells, the “Viability … compared to controls” value was “do not alter the viability”.

Regarding `C[C@@]12C(=O)OC(=O)[C@]1(C)[C@H]1CC[C@@H]2O1` [Cantharidin, reference compound], the pIC50 in assay [1] (setting [7]) is 5.33; in assay [2] (setting [8]) it was 4.89; in assay [3] (setting [9]), 5.51; in assay [4], 5.35; in assay [5] it was 5.51; in assay [6] (setting [10]), 4.86.
